Data taken from PMC3723589 (Channels, 2010).
“And” between values parts separate entries of the source, which are not always exact repeats. Identical values can stand only once. Like-named read-outs stand apart in the source and are kept apart here.

How the values were obtained:
[1] = target: T1, MC13 (Slo1(1-181):Slo3(171-1121)) (Mus musculus, UniProt O54982); format: cell-based
sperm = conditions: cited from earlier work
[2] = target: T1, MC13 (Slo1(1-181):Slo3(171-1121)); test: Block of MC13; format: cell-based
[3] = quinidine; cited from earlier work
IRK1 = conditions: read-out: EC50, block of IRK1; cited from earlier work
[4] = tested on: native pH-dependent KSper K+ channel; conditions: 500 μM quinidine; activation at pH 7.5 and +100 mV; cited from earlier work
ROMK1 = conditions: cited from earlier work
mouse Slo1 K+ channels [5] = target: T2, mouse Slo1 K+ channels (Mus musculus, UniProt Q08460); test: Block of Slo1 currents, blocker applied extracellularly to outside-out patches; format: cell-based
mouse Slo1 K+ channels [6] = target: T2, mouse Slo1 K+ channels; test: Block of Slo1 currents, blocker applied cytosolically to inside-out patches; format: cell-based
[7] = pK and percent protonation of tertiary amines; format: physicochemical; conditions: quinidine at pH 8.5; calculated from pK 8.6
[8] = intracellular quinidine, pH 8.5, fit OB-CB (2') 4 params
[9] = extracellular quinidine, pH 8.5, fit OB-CB (2') 4 params
[10] = extracellular quinidine, 300 μM Ca2+, pH 8.5, fit OB-CB (2') 4 params

T2 sequence (Q08460 66-1209 limits assumed): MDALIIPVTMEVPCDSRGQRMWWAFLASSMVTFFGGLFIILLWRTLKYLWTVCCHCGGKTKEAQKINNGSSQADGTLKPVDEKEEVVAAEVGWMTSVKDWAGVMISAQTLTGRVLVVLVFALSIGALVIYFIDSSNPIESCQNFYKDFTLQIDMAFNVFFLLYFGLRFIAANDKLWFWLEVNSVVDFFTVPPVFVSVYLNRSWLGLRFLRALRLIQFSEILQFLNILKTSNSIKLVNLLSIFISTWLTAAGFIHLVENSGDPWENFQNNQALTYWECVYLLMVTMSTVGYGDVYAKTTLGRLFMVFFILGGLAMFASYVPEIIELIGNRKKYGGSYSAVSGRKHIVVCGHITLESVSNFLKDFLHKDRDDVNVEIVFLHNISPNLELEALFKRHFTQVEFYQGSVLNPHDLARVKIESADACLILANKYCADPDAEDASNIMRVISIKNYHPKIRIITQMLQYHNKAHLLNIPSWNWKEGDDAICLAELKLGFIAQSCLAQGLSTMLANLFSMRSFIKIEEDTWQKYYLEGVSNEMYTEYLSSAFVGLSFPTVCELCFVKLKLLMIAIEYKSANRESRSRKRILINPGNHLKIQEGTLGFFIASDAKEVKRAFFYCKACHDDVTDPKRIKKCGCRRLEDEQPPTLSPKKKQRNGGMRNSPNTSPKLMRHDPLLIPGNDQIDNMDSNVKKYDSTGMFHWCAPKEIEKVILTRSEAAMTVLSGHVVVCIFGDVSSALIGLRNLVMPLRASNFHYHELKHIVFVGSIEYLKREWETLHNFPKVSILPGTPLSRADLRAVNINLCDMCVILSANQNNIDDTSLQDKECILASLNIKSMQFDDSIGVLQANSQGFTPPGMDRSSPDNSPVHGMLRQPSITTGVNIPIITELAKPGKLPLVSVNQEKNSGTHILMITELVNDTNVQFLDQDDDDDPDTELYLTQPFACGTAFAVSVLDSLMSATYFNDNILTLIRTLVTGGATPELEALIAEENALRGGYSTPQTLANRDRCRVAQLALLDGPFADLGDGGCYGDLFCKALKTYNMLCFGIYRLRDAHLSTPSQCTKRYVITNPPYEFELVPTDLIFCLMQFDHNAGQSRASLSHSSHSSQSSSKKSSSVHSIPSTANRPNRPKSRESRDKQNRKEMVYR
T1 sequence (O54982 171-1121): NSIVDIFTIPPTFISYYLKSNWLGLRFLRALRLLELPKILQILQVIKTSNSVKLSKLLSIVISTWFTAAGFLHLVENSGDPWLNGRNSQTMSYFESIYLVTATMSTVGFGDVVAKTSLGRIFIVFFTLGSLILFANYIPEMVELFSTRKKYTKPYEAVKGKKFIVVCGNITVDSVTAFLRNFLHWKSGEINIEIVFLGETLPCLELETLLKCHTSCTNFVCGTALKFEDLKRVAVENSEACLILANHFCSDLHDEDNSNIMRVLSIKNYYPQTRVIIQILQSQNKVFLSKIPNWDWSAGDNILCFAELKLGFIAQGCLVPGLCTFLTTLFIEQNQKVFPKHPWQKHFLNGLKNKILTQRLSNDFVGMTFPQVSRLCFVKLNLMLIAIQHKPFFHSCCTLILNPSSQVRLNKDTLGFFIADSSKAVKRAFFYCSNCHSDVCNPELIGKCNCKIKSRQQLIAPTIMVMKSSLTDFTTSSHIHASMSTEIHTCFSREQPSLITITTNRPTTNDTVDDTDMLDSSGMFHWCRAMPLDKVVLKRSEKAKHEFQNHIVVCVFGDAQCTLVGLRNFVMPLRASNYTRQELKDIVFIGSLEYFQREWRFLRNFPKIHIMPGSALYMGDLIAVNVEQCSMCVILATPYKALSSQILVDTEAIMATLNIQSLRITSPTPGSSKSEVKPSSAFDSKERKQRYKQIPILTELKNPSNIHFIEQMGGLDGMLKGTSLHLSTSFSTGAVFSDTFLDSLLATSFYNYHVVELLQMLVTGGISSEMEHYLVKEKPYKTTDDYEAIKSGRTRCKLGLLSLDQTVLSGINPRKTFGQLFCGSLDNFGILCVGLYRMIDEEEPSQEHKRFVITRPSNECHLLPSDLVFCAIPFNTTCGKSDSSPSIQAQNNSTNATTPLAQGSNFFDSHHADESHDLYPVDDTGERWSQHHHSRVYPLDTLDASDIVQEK
T1 sequence (Q08460 66-246 partner): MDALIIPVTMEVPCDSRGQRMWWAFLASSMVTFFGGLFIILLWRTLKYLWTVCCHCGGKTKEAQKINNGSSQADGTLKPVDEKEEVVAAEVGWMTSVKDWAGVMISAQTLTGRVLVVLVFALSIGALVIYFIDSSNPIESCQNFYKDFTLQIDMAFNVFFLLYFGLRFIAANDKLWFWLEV

change in effective Kb(0), pH 8.5 versus pH 8.2 ([1]; cytosolic quinidine, Scheme 2a): approximately 2 fold
zc [1, 8]: -0.15 ± 0.38 e
zo [1, 8]: -0.38 ± 0.10 e
block of MC13 at lower concentrations than block of Slo1 currents ([1]; quinidine, at potentials near 0 mV): ~ 100 fold
quinidine concentration giving strong block of Slo3 ([2]; at potentials near 0 mV, irrespective of the side of application): less than 10 μM
zc [2, 9]: -0.55 ± 1.5 e
zo [2, 9]: -0.27 ± 0.02 e
Kb (mouse Slo1 K+ channels [5]): 950 ± 20 µM
Kd (mouse Slo1 K+ channels [5]; Kbc, extracellular quinidine, 300 μM Ca2+, pH 8.5, fit OB-CB (2') 4 params): 1200 ± 210 µM
Kd (mouse Slo1 K+ channels [5]; Kbo, extracellular quinidine pH 7.0, 300 μM Ca2+, pH 8.5, fit OB (1a) 2 params): 950 ± 20 µM
Kd (mouse Slo1 K+ channels [5]; Kbo, extracellular quinidine, 300 μM Ca2+, pH 8.5, fit OB-CB (2') 4 params): 1510 ± 160 µM
Kd (mouse Slo1 K+ channels [5]; Kbo, extracellular quinidine, 300 μM Ca2+, pH 8.5, fit OB-CB (2a) 2 params): 1490 ± 40 µM
zo (zδ) (mouse Slo1 K+ channels [5]; extracellular quinidine pH 7.0, 300 μM Ca2+, pH 8.5, fit OB (1a) 2 params): 0.047 ± 0.01 e and 0.05 ± 0.01 e
zc (mouse Slo1 K+ channels [5]; [10]): 0.66 ± 0.1 e
zo (mouse Slo1 K+ channels [5]; [10]): 0.06 ± 0.08 e
Kb (mouse Slo1 K+ channels [6]): 92.8 ± 9.8 µM
Kd (mouse Slo1 K+ channels [6]): 207 ± 7.4 µM
effective change in Kb(0), pH 8.5 versus pH 7.0 (mouse Slo1 K+ channels [6]; cytosolic quinidine): 1.56 fold
zδ (mouse Slo1 K+ channels [6]; cytosolic quinidine, 10 μM Ca2+ at pH 7.0, Eqn. 1 open channel block): 0.11 ± 0.03 e
zo (mouse Slo1 K+ channels [6]; intracellular quinidine, 300 μM Ca2+, pH 8.5, fit OB-CB (2a) 2 params): 0.28 ± 0.02 e
percent protonated [7]: 55.7% and 55.73%
SMILES: C=C[C@H]1C[N@@]2CC[C@H]1C[C@@H]2[C@@H](O)c1ccnc2ccc(OC)cc12 [quinidine]
lowest concentration at which effects on sperm function have been reported (sperm): 20 µM
pK (one protonatable site) [3]: ~4.2
pK (second protonatable site, value used) [3]: 8.6
EC50 (IRK1): 700 µM
block of native KSper K+ channel [4]: strongly block
inhibition of ROMK1 (ROMK1): only moderately inhibited
